Consider four compounds from patent publication US10294202B2, “Pyrrolidinones as herbicides” (FMC Corporation, priority 2013, dated 2019).

Each structure is given as a SMILES string.

Experiment [1] concerns sunflower. The experiment is described as follows: Test C pre-/postemergence herbicide test. The class given is in vivo, Helianthus annuus. The settings on record: Preemergence. In outline: (§1)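 Response scores range from 0, meaning no effect, to 100, meaning complete control, assigned visually by comparison with controls roughly two weeks (13 to 15 days) after spraying. Applications were made preemergence to seeded loam–sand soil and postemergence to 1- to 4-leaf plants.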

Experiment [2] deals with nightshade. The experiment is described as follows: Test C pre-/postemergence herbicide test. The note with it: Preemergence. The format is in vivo, Solanum ptycanthum. In outline:
as §1

The subject of experiment [3] is Russian thistle. The experiment in a line: Test C pre-/postemergence herbicide test. The settings on record: Preemergence. The format is in vivo, Salsola kali. In outline: as §1
Experiment [4] concerns bermudagrass. The experiment in a line: Test C pre-/postemergence herbicide test. The format is in vivo, Cynodon dactylon. The settings on record: Preemergence; for Bermudagrass plant response rating: 31 g ai/ha. In outline: as §1
Experiment [5] has as its system crabgrass, large. The experiment in a line: Test E preemergence herbicide test. The class given is in vivo, Digitaria sanguinalis. Also on record: key: 0 = no effect, 100 = complete control. From the text:
Seeds of plant species selected from corn (Zea mays), soybean (Glycine max), velvetleaf (Abutilon theophrasti), lambsquarters (Chenopodium album), wild poinsettia (Euphorbia heterophylla), pigweed, palmer (palmer pigweed, Amaranthus palmeri), waterhemp (common waterhemp, Amaranthus rudis), surinam grass (Brachiaria decumbens), crabgrass, large (large crabgrass, Digitaria sanguinalis), crabgrass, Brazil (Brazilian crabgrass, Digitaria horizontalis), panicum, fall (fall panicum, Panicum dichotomiflorum), foxtail, giant (giant foxtail, Setaria faberii), foxtail, green (green foxtail, Setaria viridis), goosegrass (Eleusine indica), johnsongrass (Sorghum halepense), ragweed (common ragweed, Ambrosia elatior), barnyardgrass (Echinochloa crus-galli), sandbur (southern sandbur, Cenchrus echinatus), arrowleaf […] rhombifolia), ryegrass, Italian (Italian ryegrass, Lolium multiflorum), dayflower, VA (Virginia dayflower, Commelina virginica), field bindweed (Convolvulus arvensis), morningglory (Ipomoea coccinea), nightshade (eastern black nightshade, Solanum ptycanthum), kochia (Kochia scoparia), nutsedge, yellow (yellow nutsedge, Cyperus esculentus), cocklebur (common cocklebur, Xanthium strumarium), smartweed (ladysthumb smartweed, Polygonum Persicaria) and beggarticks (hairy beggarticks, Bidens pilosa), were planted into a silt loam soil and treated preemergence with test chemicals formulated in a non-phytotoxic solvent mixture which included a surfactant. Treated plants and controls were maintained in a greenhouse for 21 days, after which time all species were compared to controls and visually evaluated. Plant response ratings, summarized in Table E, are based on a scale of 0 to 100 where 0 is no effect and 100 is complete control. A dash (-) response means no test result.

In experiment [6] the test system is cocklebur. The experiment is described as follows: Test C pre-/postemergence herbicide test. The class given is in vivo, Xanthium strumarium. The note with it: Preemergence; for Cocklebur plant response rating: 31 g ai/ha. In outline: as §1
The subject of experiment [7] is bromegrass, downy. The experiment is described as follows: Test C pre-/postemergence herbicide test. The format is in vivo, Bromus tectorum. The settings on record: Preemergence; for Bromegrass, Downy plant response rating: 31 g ai/ha. In outline: as §1
In experiment [8] the test system is surinam grass. The experiment in a line: Test C pre-/postemergence herbicide test. The class given is in vivo, Brachiaria decumbens. The note with it: Preemergence. In outline:
as §1

The test system of experiment [9] is foxtail, green. The experiment is described as follows: Test C pre-/postemergence herbicide test. The note with it: Preemergence; for Foxtail, Green plant response rating: 31 g ai/ha. The class given is in vivo, Setaria viridis. In outline:
as §1

Experiment [10] relates to goosegrass. The experiment is described as follows: Test C pre-/postemergence herbicide test. The class given is in vivo, Eleusine indica. The note with it: Preemergence; for Goosegrass plant response rating: 31 g ai/ha. In outline:
as §1

[11] abbreviates: 125 g ai/ha, scale 0 to 100 (0 no effect, 100 complete control).
Setting [12] is: scale 0 to 100 (0 no effect, 100 complete control).
Where [13] appears, read: 250 g ai/ha, scale 0 to 100 (0 no effect, 100 complete control).
Where [14] appears, read: 31 g ai/ha, scale 0 to 100, 0 is no effect and 100 is complete control.
[15] abbreviates: scale 0 to 100, 0 is no effect and 100 is complete control.

With `O=C1NCC(c2ccc(F)cc2)C1C(=O)Nc1ccccc1F` (racemic) [Compound 16], the “Plant response rating Sunflower” value was 0 in experiment [1] (62 g ai/ha, scale 0 to 100) and 0 in experiment [1] (setting [11]). Moreover, the “Plant response rating, Nightshade” value worked out at 0 in [2] (62 g ai/ha, scale 0 to 100) and 0 in experiment [2] (setting [11]). The “Plant response rating, Russian Thistle” value in [3] (62 g ai/ha, scale 0 to 100) stood at 0; in experiment [3] (setting [11]) it was 0. Further, in experiment [4] (setting [12]), the “Bermudagrass plant response rating” value stood at 0. Besides, the “Plant response rating, Bermudagrass” value came out at 0 in [4] (62 g ai/ha, scale 0 to 100); 90 in experiment [4] (setting [11]); 95 in experiment [4] (setting [13]). Moreover, the “Plant response rating, Crabgrass, Large” value was 10 in experiment [5] (16 g ai/ha); 20 in experiment [5] (31 g ai/ha); 30 in experiment [5] (62 g ai/ha); 75 in experiment [5] (125 g ai/ha); 98 in experiment [5] (250 g ai/ha). Further, in [6] (setting [12]), the “Cocklebur plant response rating” value was 0. Further, the “Plant response rating, Cocklebur” value in [6] (62 g ai/ha, scale 0 to 100) stood at 0; in experiment [6] (setting [11]), 0; in [6] (setting [13]) it was 0. The “Bromegrass, Downy plant response rating” value in experiment [7] (setting [12]) was determined as 0. Further, the “Plant response rating, Bromegrass, Downy” value in experiment [7] (62 g ai/ha, scale 0 to 100) is given as 5; in [7] (setting [11]) it was 30; in experiment [7] (setting [13]), 35. Also, the “Plant response rating, Surinam Grass” value in experiment [8] (62 g ai/ha, scale 0 to 100) is reported as 95; in experiment [8] (setting [11]), 98. Besides, the “Foxtail, Green plant response rating” value in experiment [9] (setting [12]) was 5. Moreover, the “Plant response rating, Foxtail, Green” value is 35 in experiment [9] (62 g ai/ha, scale 0 to 100); 80 in experiment [9] (setting [11]); 90 in experiment [9] (setting [13]). The “Goosegrass plant response rating” value in experiment [10] (setting [12]) worked out at 0. The “Plant response rating, Goosegrass” value in experiment [10] (62 g ai/ha, scale 0 to 100) is listed as 0; in [10] (setting [11]), 0.
Turning to `O=C1NCC(c2cccc(Br)c2)C1C(=O)Nc1cccc(F)c1F` (stereo not drawn) [Compound 64], the “Plant response rating Sunflower” value in [1] (62 g ai/ha, scale 0 to 100) amounted to 0; in [1] (setting [11]), 0. Further, the “Plant response rating, Nightshade” value in experiment [2] (62 g ai/ha, scale 0 to 100) is 0; in [2] (setting [11]), 0. For the same compound, the “Plant response rating, Russian Thistle” value is reported as 0 in [3] (62 g ai/ha, scale 0 to 100) and 0 in experiment [3] (setting [11]). The “Bermudagrass plant response rating” value in experiment [4] (setting [12]) is 0. Further, the “Plant response rating, Bermudagrass” value in [4] (62 g ai/ha, scale 0 to 100) was 0; in experiment [4] (setting [11]), 25; in [4] (setting [13]), 55. Also, in experiment [6] (62 g ai/ha, scale 0 to 100), the “Plant response rating, Cocklebur” value was found to be 0. For the same compound, the “Bromegrass, Downy plant response rating” value in experiment [7] (setting [12]) turned out to be 0. The “Plant response rating, Bromegrass, Downy” value in [7] (62 g ai/ha, scale 0 to 100) was 0; in [7] (setting [11]) it was 0; in [7] (setting [13]) it was 50. Also, the “Plant response rating, Surinam Grass” value is 50 in experiment [8] (62 g ai/ha, scale 0 to 100) and 65 in experiment [8] (setting [11]). Also, in experiment [9] (setting [12]), the “Foxtail, Green plant response rating” value is given as 70. The “Plant response rating, Foxtail, Green” value was 85 in experiment [9] (62 g ai/ha, scale 0 to 100); 90 in [9] (setting [11]); 98 in experiment [9] (setting [13]). In addition, in experiment [10] (setting [12]), the “Goosegrass plant response rating” value was found to be 20. Besides, the “Plant response rating, Goosegrass” value in experiment [10] (62 g ai/ha, scale 0 to 100) was 20; in [10] (setting [11]), 25.
With `O=C1NCC(c2cccc(Br)c2)C1C(=O)Nc1ccccc1F` (stereo not drawn) [Compound 66], the “Sunflower plant response rating” value in [1] (setting [14]) worked out at 0. The “Plant response rating Sunflower” value came to 0 in experiment [1] (62 g ai/ha, scale 0 to 100) and 0 in [1] (setting [11]). Also, the “Nightshade plant response rating” value in [2] (setting [14]) turned out to be 0. Also, the “Plant response rating, Nightshade” value in experiment [2] (62 g ai/ha, scale 0 to 100) is listed as 0; in [2] (setting [11]), 0. Besides, in experiment [3] (setting [14]), the “Russian Thistle plant response rating” value worked out at 0. In addition, the “Plant response rating, Russian Thistle” value in [3] (62 g ai/ha, scale 0 to 100) is on record as 0; in [3] (setting [11]), 0. The “Bermudagrass plant response rating” value in experiment [4] (setting [15]) is recorded as 0. The “Plant response rating, Bermudagrass” value is given as 0 in experiment [4] (62 g ai/ha, scale 0 to 100); 0 in experiment [4] (setting [11]); 0 in experiment [4] (setting [13]). Also, the “Plant response rating, Crabgrass, Large” value in experiment [5] (16 g ai/ha) was found to be 0; in [5] (31 g ai/ha), 10; in experiment [5] (62 g ai/ha) it was 75; in [5] (125 g ai/ha) it was 90; in experiment [5] (250 g ai/ha) it was 98. In addition, the “Cocklebur plant response rating” value in [6] (setting [15]) is reported as 0. In addition, the “Bromegrass, Downy plant response rating” value in experiment [7] (setting [15]) is 0. For the same compound, the “Plant response rating, Bromegrass, Downy” value came to 0 in experiment [7] (62 g ai/ha, scale 0 to 100); 0 in experiment [7] (setting [11]); 5 in experiment [7] (setting [13]). In experiment [8] (setting [14]), the “Surinam Grass plant response rating” value is on record as 0. The “Plant response rating, Surinam Grass” value in experiment [8] (62 g ai/ha, scale 0 to 100) was 0; in [8] (setting [11]), 75. Moreover, the “Foxtail, Green plant response rating” value in experiment [9] (setting [15]) is on record as 50. The “Plant response rating, Foxtail, Green” value is 80 in experiment [9] (62 g ai/ha, scale 0 to 100); 90 in experiment [9] (setting [11]); 98 in experiment [9] (setting [13]). Besides, the “Goosegrass plant response rating” value in [10] (setting [15]) is given as 5. The “Plant response rating, Goosegrass” value is 5 in experiment [10] (62 g ai/ha, scale 0 to 100) and 10 in experiment [10] (setting [11]).
In the case of `O=C1NCC(c2ccc(C(F)(F)F)cc2)C1C(=O)Nc1ccc(F)c(F)c1F` (stereo not drawn) [Compound 232], the “Plant response rating, Crabgrass, Large” value came out at 95 in experiment [5] (31 g ai/ha), 98 in experiment [5] (62 g ai/ha), 98 in experiment [5] (125 g ai/ha) and 98 in experiment [5] (250 g ai/ha).
